OC[C@H]1O[C@H](O[C@]2(CCl)O[C@H](CCl)[C@@H](O)[C@@H]2O)[C@H](O)[C@@H](O)[C@H]1Cl
solubility (mole fraction)
Details	in ethanol	in isopropanol	in methanol	in water
283.15 K	0.00843	–	0.0307	0.0107
288.15 K	0.00976	0.00389	0.0315	0.0115
293.15 K	0.012	0.0044	0.0328	0.0123
298.15 K	0.0143	0.00533	0.0343	0.0146
303.15 K	0.0158	0.00624	0.0362	0.0164
308.15 K	0.0184	0.00789	0.0383	0.0182
313.15 K	0.0202	0.00854	0.0415	0.0195
318.15 K	0.0228	0.011	0.0449	0.0223
323.15 K	0.0248	0.0128	0.0485	0.0259
328.15 K	0.0281	0.015	0.0524	0.0285
333.15 K	0.0322	0.0171	0.0596	0.0314
